According to patent US10221163B2 (priority 2015, dated 2019):
Where two headings read alike, the source gives them in different places.

Tests used:
IMP-1 = IMP-1 (Serratia marcescens, UniProt P52699); assay: biochemical; type: biochemical; details: fluorescence assay, CCF2-FA substrate, 2 pM enzyme, 2 hours at 25° C.; read-out: IMP-1 IC50
How it was run: (§1)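 Class B activity is measured in the presence of compound by fluorescence with CCF2-FA after a 2-hour incubation at 25° C. IC50 is taken from a 4-parameter fit of semi-logarithmic dose-response data.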

NDM-1 = NDM-1 (Klebsiella pneumoniae, UniProt C7C422); assay: biochemical; type: biochemical; details: fluorescence assay, CCF2-FA substrate, 1 pM enzyme, 2 hours at 25° C.; read-out: NDM-1 IC50
NDM-1, sequence (C7C422 whole entry, looked up, species assumed): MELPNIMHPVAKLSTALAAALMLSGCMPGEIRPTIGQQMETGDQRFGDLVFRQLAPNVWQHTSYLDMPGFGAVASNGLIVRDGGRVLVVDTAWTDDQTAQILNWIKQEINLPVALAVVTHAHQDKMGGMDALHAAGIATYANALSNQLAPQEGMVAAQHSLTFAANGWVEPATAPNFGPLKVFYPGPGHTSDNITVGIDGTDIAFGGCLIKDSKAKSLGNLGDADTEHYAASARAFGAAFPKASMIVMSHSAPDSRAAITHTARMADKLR
How it was run: as §1

VIM-1 = VIM-1 (Pseudomonas aeruginosa (strain ATCC 15692 / DSM 22644 / CIP 104116 / JCM 14847 / LMG 12228 / 1C / PRS 101 / PAO1), UniProt A0A0F7KYQ8); assay: biochemical; details: CCF2-FA substrate, 30 pM enzyme, 2 hours at 25° C.
How it was run: as §1

[1] = test system: Escherichia coli expressing NDM-1 (CLB30005, CLB30016); type: cell-based; details: with imipenem 1 μg/ml; for Escherichia coli expressing NDM-1 (CLB30016) MITC95: 95% inhibition of bacterial growth; for Escherichia coli MITC95: NDM-1 strain, 95% inhibition of growth
How it was run: (§2)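 Clinical strains grown overnight on blood agar at 35°C, colonies suspended in saline, diluted 1:100 into 1.1×CAMHB. Test compound titrated with imipenem at 1 μg/ml; incubated 22–24 h at 35°C, growth read by absorbance.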

[2] = test system: Klebsiella pneumoniae expressing VIM-1 (IHMA599644); type: cell-based; details: for Klebsiella pneumoniae expressing VIM-1 (IHMA599644) MITC95: with imipenem 1 μg/ml, 95% inhibition of bacterial growth; for Klebsiella pneumoniae MITC95: VIM-1 strain IHMA599644, with imipenem 1 μg/ml, 95% inhibition of growth
How it was run: as §2

[3] = test system: Serratia marcescens expressing IMP-1 (CL5741); type: cell-based; details: for Serratia marcescens expressing IMP-1 (CL5741) MITC95: with imipenem 1 μg/ml, 95% inhibition of bacterial growth; for Serratia marcescens MITC95: IMP-1 strain CL5741, with imipenem 1 μg/ml, 95% inhibition of growth
How it was run: as §2

[4] = test system: Pseudomonas aeruginosa efflux+ (MB9798), IMP-1; type: cell-based; set-up: Concentration of metallo-β-lactamase inhibitor which restores susceptibility of efflux + (MB9798) strain to imipenem: unit not given here; details: C, D serine β-lactamase inhibitor closely related to relebactam; for P. aeruginosa expressing IMP-1, efflux + (MB9798) MITC95: concentration restoring susceptibility to imipenem at 2 μg/mL in the presence of a class A
How it was run: (§3)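 PAO1 pair, broth microdilution; fixed β-lactam (imipenem/ceftazidime) at ~CLSI breakpoint + fixed class A/C BLI for AmpC; serial MBLi titration; endpoint = MBLi conc. restoring susceptibility; MB9798:MB9799 ratio = efflux liability.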

[5] = test system: Pseudomonas aeruginosa efflux− (MB9799), IMP-1; type: cell-based; details: C, D serine β-lactamase inhibitor closely related to relebactam; for P. aeruginosa expressing IMP-1, efflux − (MB9799) MITC95: concentration restoring susceptibility to imipenem at 2 μg/mL in the presence of a class A
How it was run: as §3

[6] = test system: Pseudomonas aeruginosa MB9798 vs MB9799
How it was run: as §3

[7] = fluorescence assay, read-out: VIM-1 IC50
[8] = ratio MITC95 PA_9798/MITC95 PA_9799

IMP-1, sequence (P52699 whole entry, looked up, species assumed): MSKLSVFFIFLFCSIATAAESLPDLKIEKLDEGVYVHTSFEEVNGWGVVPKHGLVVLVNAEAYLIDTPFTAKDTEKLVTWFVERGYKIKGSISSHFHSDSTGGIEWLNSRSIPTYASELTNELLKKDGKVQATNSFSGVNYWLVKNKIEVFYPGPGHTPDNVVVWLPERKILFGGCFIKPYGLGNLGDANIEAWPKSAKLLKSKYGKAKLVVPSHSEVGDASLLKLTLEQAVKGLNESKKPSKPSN

SMILES | IC50 (IMP-1) [nM] | IC50 (NDM-1) [nM] | IC50 (VIM-1; [7]) [nM] | Escherichia coli expressing NDM-1 (CLB30016) MITC95 [1] [µM] | Klebsiella pneumoniae expressing VIM-1 (IHMA599644) MITC95 [2] [µM] | Serratia marcescens expressing IMP-1 (CL5741) MITC95 [3] [µM] | P. aeruginosa expressing IMP-1, efflux + (MB9798) MITC95 [4] [µM] | P. aeruginosa expressing IMP-1, efflux − (MB9799) MITC95 [5] [µM] | Efflux ratio [6, 8] | IC50 (VIM-1; VIM-1 IC50, fluorescence assay) [nM] | Escherichia coli MITC95 [1] [µM] | Klebsiella pneumoniae MITC95 [2] [µM] | Serratia marcescens MITC95 [3] [µM] | Concentration of metallo-β-lactamase inhibitor which restores susceptibility of efflux + (MB9798) strain to imipenem ([4]; efflux+ MB9798, imipenem at 2 μg/mL, in the presence of a class A) | Concentration of metallo-β-lactamase inhibitor which restores susceptibility of efflux − (MB9799) strain to imipenem ([5]; efflux− MB9799, imipenem at 2 μg/mL, in the presence of a class A) | Efflux ratio ([6]; fold difference between efflux+ (MB9798) and efflux− (MB9799) strains, imipenem at 2 μg/mL)
Nc1nc2c(-c3ccc(S(=O)(=O)NC4CC5CNC4C5)c(S(N)(=O)=O)c3-c3nnn[nH]3)cccc2s1 (stereo not drawn) [Example 88, 4-(2-aminobenzo[d]thiazol-4-yl)-N^1-(2-azabicyclo[2.2.1]heptan-6-yl)-3-(1H-tetrazol-5-yl)benzene-1,2-disulfonamide] | 0.172 | 0.0203 | 0.165 | 3.125 | 6.25 | 3.125 | 1.563 | 3.125 | 0.50 |  |  |  |  |  |  | 
CN1CC[C@@H](CNS(=O)(=O)c2ccc(-c3cccc4sc(N)nc34)c(-c3nnn[nH]3)c2S(N)(=O)=O)C1 [Example 76, 4-(2-amino-1,3-benzothiazol-4-yl)-N^1-{[(3R)-1-methylpyrrolidin-3-yl]methyl}-3-(1H-tetrazol-5-yl)benzene-1,2-disulfonamide] | 0.195 | 0.0285 |  | 3.125 | 3.125 | 1.563 | 0.7813 | 1.563 | 0.50 | 0.129 |  |  |  |  |  | 
NCCNS(=O)(=O)c1ccc(-c2cccc(-c3n[nH]c(N)n3)c2)c(-c2nn[nH]n2)c1S(N)(=O)=O [Example 228, 3′-(5-amino-1H-1,2,4-triazol-3-yl)-N4-(2-aminoethyl)-2-(2H-tetrazol-5-yl)-[1,1′-biphenyl]-3,4-disulfonamide] | 0.562 | 0.0864 | 0.15 | 0.7813 | 3.125 | 1.563 | 1.563 | 1.563 | 1.00 |  |  |  |  |  |  | 
Nc1nc2c(-c3ccc(S(=O)(=O)N4CC5CC4CS5(=O)=O)c(S(N)(=O)=O)c3-c3nnn[nH]3)cccc2s1 (stereo not drawn) [Example 40, 3-(2-amino-1,3-benzothiazol-4-yl)-6-[(2,2-dioxido-2-thia-5-azabicyclo[2.2.1]hept-5-yl)sulfonyl]-2-(1H-tetrazol-5-yl)benzenesulfonamide] | 1.86 | 1.7 |  | 25 | 25 | 6.25 | 50 | 3.125 | 16.00 | 2.66 |  |  |  |  |  | 
NCc1nc2c(-c3ccc(S(=O)(=O)N[C@@H]4CCNC4)c(S(N)(=O)=O)c3-c3nn[nH]n3)cccc2s1 [Example 276, (R)-4-(2-(aminomethyl)benzo[d]thiazol-4-yl)-N1-(pyrrolidin-3-yl)-3-(2H-tetrazol-5-yl)benzene-1,2-disulfonamide] | 0.542 | 0.0561 |  |  |  |  | 0.7813 | 0.7813 | 1.00 | 0.0881 | 1.172 | 0.7813 | 0.7813 |  |  | 
Nc1nc2c(-c3ccc(S(=O)(=O)N[C@@H]4CCNC4)c(S(N)(=O)=O)c3-c3nn[nH]n3)cc(I)cc2[nH]1 [Example 234, (R)-4-(2-amino-6-iodo-1H-benzo[d]imidazol-4-yl)-N^1-(pyrrolidin-3-yl)-3-(2H-tetrazol-5-yl)benzene-1,2-disulfonamide] | 0.14 | 0.0157 | 0.0829 | 0.7813 | 0.7813 | 0.7813 | 0.7813 | 0.7813 | 1.00 |  |  |  |  |  |  | 
NCC(CN)NS(=O)(=O)c1ccc(-c2cccc3[nH]c(N)nc23)c(-c2nn[nH]n2)c1S(N)(=O)=O [Example 429] | 0.489 | 0.0819 | 0.228 |  |  |  |  |  |  |  | 0.5208 | 1.563 | 1.563 | 0.7813 | 0.7813 | 1.00
CN(C)C1CN(S(=O)(=O)c2ccc(-c3cccc4sc(N)nc34)c(-c3nnn[nH]3)c2S(N)(=O)=O)C1 [Example 39, 3-(2-amino-1,3-benzothiazol-4-yl)-6-{[3-(dimethylamino)azetidin-1-yl]sulfonyl}-2-(1H-tetrazol-5-yl)benzenesulfonamide] | 0.878 | 0.506 | 0.908 | 12.5 | 12.5 | 6.25 | 50 | 3.125 | 16.00 |  |  |  |  |  |  | 
CS(=O)(=O)Nc1nc2c(-c3ccc(S(=O)(=O)N4CCNCC4)c(S(N)(=O)=O)c3-c3nn[nH]n3)cccc2s1 [Example 156, 3-(2-(Methylsulfonamido)benzo[d]thiazol-4-yl)-6-(piperazin-1-ylsulfonyl)-2-(2H-tetrazol-5-yl)benzenesulfonamide] | 0.898 | 0.29 | 1.74 | 6.25 | 25 | 12.5 | 12.5 | 6.25 | 2.00 |  |  |  |  |  |  | 
CN1CC[C@@H](NS(=O)(=O)c2ccc(-c3cccc4[nH]c(N)nc34)c(-c3nn[nH]n3)c2S(N)(=O)=O)C1 [Example 232, (R)-4-(2-amino-1H-benzo[d]imidazol-4-yl)-N^1-(1-methylpyrrolidin-3-yl)-3-(2H-tetrazol-5-yl)benzene-1,2-disulfonamide] | 0.609 | 0.0505 |  | 0.3906 | 1.563 | 0.7813 | 1.563 | 0.7813 | 2.00 | 0.16 |  |  |  |  |  | 
